From BindingDB's records for patent US11912682 (Monte Rosa Therapeutics, 2024)
pIC50: −log10 of the molar value.

Target: Protein cereblon (Homo sapiens, UniProt Q96SW2)
Assay: Compound Activity by Fluorescent Polarization Assay
Procedure: Compound activity was monitored in a fluorescence polarization (FP) homogeneous assay using 1-[5-({2-[2-(2-{[2-(2,6-dioxopiperidin-3-yl)-1,3-dioxo-2,3-dihydro-1H-isoindol-4-yl]oxy}acetamido)ethoxy]ethyl}carbamoyl)pentyl]-3,3-dimethyl-2-[(1E,3E)-5-[(2E)-1,3,3-trimethyl-5-sulfo-2,3-dihydro-1H-indol-2-ylidene]penta-1,3-dien-1-yl]-3H-indol-1-ium-5-sulfonate as a fluorescent probe. Unless otherwise stated, all reagents were purchased from Sigma Aldrich. Enzymatic reactions were conducted in Perkin-Elmer Black 384 well ProxiPlate Plus (catalogue no. 6008269) in 10 μL total volume. Full length wild-type cereblon CRBN (80.0 nM, 10 μL) was incubated in assay buffer containing 20 mM HEPES (pH 8.0), […], 0.5 mM TCEP and 0.05% Tween 20 in the presence or absence of compound (300 nL). Inhibitors were stored as 10 mM DMSO stocks in an inert environment (low humidity, dark, low oxygen, room temperature) using the Storage Pod System. Compounds and DMSO were dispensed using the Echo ESXX (Labcyte Inc. USA) to give concentrations from 300 to 0.937 or 3000 to 9.3 nM in a 12 data point curve. […] FP was measured after a period of 12 hours using a Pherastar plate reader (BMG Labtech, Germany) exciting at 590 nm and measuring the amount of parallel and perpendicular light at 675 nm. […]

Sequence of Protein cereblon (Q96SW2 whole entry): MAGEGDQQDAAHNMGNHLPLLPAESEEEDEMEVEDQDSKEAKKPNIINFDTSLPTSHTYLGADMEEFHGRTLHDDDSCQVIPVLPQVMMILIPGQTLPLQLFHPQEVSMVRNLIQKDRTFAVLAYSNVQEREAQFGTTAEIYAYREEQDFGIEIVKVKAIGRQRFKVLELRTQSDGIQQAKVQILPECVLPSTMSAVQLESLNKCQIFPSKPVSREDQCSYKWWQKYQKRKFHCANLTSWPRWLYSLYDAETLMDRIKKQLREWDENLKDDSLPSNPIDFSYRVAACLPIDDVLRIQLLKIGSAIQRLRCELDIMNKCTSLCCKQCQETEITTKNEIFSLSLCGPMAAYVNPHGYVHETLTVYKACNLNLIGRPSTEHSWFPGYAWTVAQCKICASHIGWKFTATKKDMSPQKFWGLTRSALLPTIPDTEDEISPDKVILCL

pIC50: < 5.77
SMILES: O=C1CCC(N2Cc3ccc(COC(=O)Nc4cc(Cl)cc(OC(F)(F)F)c4)cc3C2=O)C(=O)N1 (stereo unspecified) [US11912682, Compound 11]
